Laboratory results from US8741931B2, “Kinase inhibitors” (priority 2007, dated 2014).
pKi: −log10 of the molar value. Read-outs that look alike come from different tables or passages of the source.

Columns and labels:
[1] = target: PKC delta kinase (Homo sapiens, UniProt Q05655); experiment: PKC Delta (coupled enzyme assay); type: biochemical
Description: An assay buffer solution was prepared which consisted of 100 mM HEPES (pH 7.5), 10 mM MgCl2, 25 mM NaCl, 0.1 mM EDTA and 0.01% Brij. […] To 16 μL of this enzyme buffer, in a 384 well plate, was added 1 μL of VRT stock solution in DMSO. The mixture was allowed to equilibrate for 10 mins at 30° C. […] Ki values were calculated from initial rate data by non-linear regression using the Prism software package (Prism 4.0a, Graphpad Software, San Diego, Calif.).

[2] = target: PKC alpha kinase (Homo sapiens, UniProt P17252); experiment: PKC Alpha (coupled enzyme assay); type: biochemical; settings: 130 μM ATP, 4.5 nM PKC alpha
Description: An assay buffer solution was prepared which consisted of 100 mM HEPES (pH 7.5), 10 mM MgCl2, 25 mM NaCl, 0.1 mM EDTA, 100 μM CaCl2 and 0.01% Brij. […] To 16 μL of this enzyme buffer, in a 384 well plate, was added 1 μL of VRT stock solution in DMSO. The mixture was allowed to equilibrate for 10 mins at 30° C. […] Ki values were calculated from initial rate data by non-linear regression using the Prism software package (Prism 4.0a, Graphpad Software, San Diego, Calif.).

[3] = 150 μM ATP, 46 nM PKC delta, read-out: Ki PKC delta

Sequence of PKC delta kinase (Q05655 whole entry): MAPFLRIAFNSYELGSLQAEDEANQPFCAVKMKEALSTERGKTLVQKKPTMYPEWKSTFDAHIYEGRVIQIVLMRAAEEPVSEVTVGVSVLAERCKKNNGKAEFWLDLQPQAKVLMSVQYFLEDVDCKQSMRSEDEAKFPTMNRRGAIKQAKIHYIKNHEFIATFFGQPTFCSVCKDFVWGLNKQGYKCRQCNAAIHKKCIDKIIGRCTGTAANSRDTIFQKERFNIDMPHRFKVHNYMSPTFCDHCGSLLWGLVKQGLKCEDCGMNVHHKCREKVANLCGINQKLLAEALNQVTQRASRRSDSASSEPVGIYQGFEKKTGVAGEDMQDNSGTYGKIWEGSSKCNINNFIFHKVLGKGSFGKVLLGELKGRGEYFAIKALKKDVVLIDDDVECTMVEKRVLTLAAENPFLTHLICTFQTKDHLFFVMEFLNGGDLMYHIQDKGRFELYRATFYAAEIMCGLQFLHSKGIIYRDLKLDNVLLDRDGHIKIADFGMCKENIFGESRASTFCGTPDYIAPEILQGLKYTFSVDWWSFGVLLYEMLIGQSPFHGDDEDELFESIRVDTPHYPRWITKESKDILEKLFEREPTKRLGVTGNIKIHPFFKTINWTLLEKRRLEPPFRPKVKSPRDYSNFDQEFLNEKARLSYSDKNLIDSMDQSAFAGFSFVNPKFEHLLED

Compound	pKi [1, 3]	pKi [2]	pKi [1]
Nc1ncccc1C(=O)c1nc(N2CC3CCC(C2)N3)ccc1C(F)(F)F [compound 466]	6.30 to 7.30		
Nc1ncccc1C(=O)c1nc(N2CCN[C@H](c3ccccc3)C2)ccc1C(F)(F)F [compound 447]	5.55 to 6.30	5.55 to 6.30	
CC[C@](CN)(CNc1ccc(C(F)(F)F)c(C(=O)c2cccnc2N)n1)c1ccccc1 [compound 463]		> 7.30	
Cc1ccc(-c2ccc(N3CCNCC3)nc2C(=O)c2cccnc2N)o1 [compound 470]	6.30 to 7.30	< 5.55	
CC1CCCCC1C(=O)N1CCCN(c2cccc(C(=O)c3cccnc3N)n2)CC1 (stereo not drawn) [compound 93]	< 5.55		
Nc1ncccc1C(=O)c1nc(N2CCNC(CC(F)(F)F)C2)ccc1C(F)(F)F (stereo not drawn) [compound 491]	5.55 to 6.30	< 5.55	
C=C(F)c1ccc(N2CCNC(c3ccccc3)C2)nc1C(=O)c1cccnc1N (stereo not drawn) [compound 457]		> 7.30	
C=C(F)c1ccc(N2CCN[C@@H](CC(C)(C)F)C2)nc1C(=O)c1cccnc1N [compound 506]	6.30 to 7.30	5.55 to 6.30	
Nc1ncccc1C(=O)c1cccc(N2CCCN(CC3CC3)CC2)n1 [compound 117]	6.30 to 7.30		
Cc1ccsc1C(=O)N1CCCN(c2cccc(C(=O)c3cccnc3N)n2)CC1 [compound 27]	5.55 to 6.30		
Cc1cnc(N)c(C(=O)c2nc(N3CCN[C@@H](CC(C)C)C3)ccc2C(F)(F)F)c1 [compound 499]	6.30 to 7.30		
C=C(F)c1ccc(N2CCNC(C(F)(F)F)C2)nc1C(=O)c1cccnc1N (stereo not drawn) [compound 504]		5.55 to 6.30	
CC(C)(C)[C@H](N)COc1ccc(C(F)(F)F)c(C(=O)c2cccnc2N)n1 [compound 422]	5.55 to 6.30	< 5.55	
CC[C@H]1CN(c2ccc(C(F)(F)F)c(C(=O)c3cccnc3N)n2)C[C@H](C(C)C)N1 [compound 473]	6.30 to 7.30		
C[C@H]1CN(c2ccc(C(F)(F)F)c(C(=O)c3cccnc3N)n2)CCN1 [compound 478]	6.30 to 7.30		
CC(C)[C@H]1CN(c2ccc(C(F)(F)F)c(C(=O)c3cccnc3N)n2)C[C@H](c2ccccc2)N1 [compound 450]	6.30 to 7.30		
CCCC1CN(c2ccc(C(F)(F)F)c(C(=O)c3cccnc3N)n2)CCCN1 (stereo not drawn) [compound 437]	6.30 to 7.30		
CC(C)(CN)CNc1ccc(C(F)(F)F)c(C(=O)c2cccnc2N)n1 [compound 425]	6.30 to 7.30	5.55 to 6.30	
Nc1ncccc1C(=O)c1cccc(N2CCCN(C(=O)CC(F)(F)F)CC2)n1 [compound 23]	6.30 to 7.30		
Nc1ncccc1C(=O)c1nc(N2CCN[C@@H](c3ccccc3)C2)ccc1C(F)(F)F [compound 448]	6.30 to 7.30		
CC(C)C[C@H]1CN(c2ccc(C(F)(F)F)c(C(=O)c3cccnc3N)n2)C[C@@H](C)N1 [compound 490]		> 7.30	
Cn1cc(-c2cccc(C(=O)c3cccnc3N)n2)cn1 [compound 292]	< 5.55		

Compound	pKi [1, 3]	pKi [2]	pKi [1]
CCN1CCCN(c2cccc(C(=O)c3cc(Br)cnc3N)n2)CC1 [compound 115]	6.30 to 7.30		
Nc1ncc(Br)cc1C(=O)c1cccc(N2CCCN(CC3CC3)CC2)n1 [compound 113]	6.30 to 7.30		
Nc1ncccc1C(=O)c1nc(N2CCNC(c3cccc(Cl)c3)C2)ccc1C(F)(F)F (stereo not drawn) [compound 497]		> 7.30	
CC(C)N1CCCN(c2cccc(C(=O)c3cccnc3N)n2)CC1 [compound 116]	6.30 to 7.30		
CN1CCCN(c2cccc(C(=O)c3cccnc3N)n2)CC1 [compound 82]			5.55 to 6.30
Nc1ncc(Br)cc1C(=O)c1cccc(N2CCCN(C(=O)Cc3cccc(O)c3)CC2)n1 [compound 70]	5.55 to 6.30		
Nc1ncc(Br)cc1C(=O)c1cccc(N2CCC(N3CCCC3)CC2)n1 [compound 121]	6.30 to 7.30		
Nc1ncccc1C(=O)c1cccc(N2CCCN(CCc3ccccc3)CC2)n1 [compound 120]	5.55 to 6.30		
Nc1ncccc1C(=O)c1nc(N2CCNC(CC3CC3)C2)ccc1C(F)(F)F (stereo not drawn) [compound 441]	6.30 to 7.30		
Nc1ncccc1C(=O)c1nc(N2CCNC(C3CC3)C2)ccc1C(F)(F)F (stereo not drawn) [compound 442]	6.30 to 7.30		
C=C(F)c1ccc(N2CCN[C@@H](c3ccccc3)C2)nc1C(=O)c1cccnc1N [compound 475]		> 7.30	
CCCC1CN(c2ccc(C(F)(F)F)c(C(=O)c3cccnc3N)n2)CCN1 (stereo not drawn) [compound 434]	6.30 to 7.30		
CCc1cnc(N)c(C(=O)c2nc(N3CCN[C@@H](CC(C)C)C3)ccc2C(F)(F)F)c1 [compound 486]	6.30 to 7.30		
CC(C)(C)CN1CCCN(c2cccc(C(=O)c3cccnc3N)n2)CC1 [compound 126]	5.55 to 6.30		
CC(C)C(=O)N1CCCN(c2cccc(C(=O)c3cc(Br)cnc3N)n2)CC1 [compound 71]	5.55 to 6.30		
COCC#Cc1cnc(N)c(C(=O)c2cccc(N3CCCNCC3)n2)c1 [compound 138]	6.30 to 7.30		
C=C(F)c1ccc(N2CCN[C@@H](CC(C)C)C2)nc1C(=O)c1cccnc1N [compound 424]		> 7.30	
Nc1ncccc1C(=O)c1nc(OCCC(N)c2ccccc2)ccc1C(F)(F)F (stereo not drawn) [compound 427]	6.30 to 7.30		
Nc1ncc(Br)cc1C(=O)c1nc(N2CCC(N)CC2)cs1 [compound 134]	6.30 to 7.30		
CC(C)CC(C)(N)CNc1ccc(C(F)(F)F)c(C(=O)c2cccnc2N)n1 (stereo not drawn) [compound 443]	6.30 to 7.30		
CC(C)C[C@H]1CN(c2ccc(C(F)(F)F)c(C(=O)c3cc(Br)cnc3N)n2)CCN1 [compound 479]	6.30 to 7.30		
CC[C@@](CN)(CNc1ccc(C(F)(F)F)c(C(=O)c2cccnc2N)n1)c1ccccc1 [compound 462]	6.30 to 7.30		

Compound	pKi [1, 3]	pKi [2]	pKi [1]
CCC[C@@H]1CN(c2ccc(C(F)(F)F)c(C(=O)c3cccnc3N)n2)C[C@H](CC(C)C)N1 [compound 494]		> 7.30	
CC(C)C[C@H]1CN(c2ccc(-c3ccccc3F)c(C(=O)c3cccnc3N)n2)CCN1 [compound 435]		> 7.30	
CCc1cnc(N)c(C(=O)c2cccc(N3CCCNCC3)n2)c1 [compound 105]	6.30 to 7.30		
Nc1ncc(C(F)(F)F)cc1C(=O)c1cccc(N2CCCNCC2)n1 [compound 140]	6.30 to 7.30		
C=C(F)c1ccc(N2CCNC(c3cccc(Cl)c3)C2)nc1C(=O)c1cccnc1N (stereo not drawn) [compound 476]		> 7.30	
C=C(F)c1ccc(N2CCN[C@H](c3ccccc3)C2)nc1C(=O)c1cccnc1N [compound 474]	6.30 to 7.30		
CC(C)C[C@H]1CN(c2ccc(C(F)(F)F)c(C(=O)c3cccnc3N)n2)CC2(CCC2)N1 [compound 471]	6.30 to 7.30		
Cc1sc(N2CCN[C@@H](CC(C)C)C2)nc1C(=O)c1cccnc1N [compound 505]	6.30 to 7.30		
CC(C)C(O)C1CN(c2ccc(C(F)(F)F)c(C(=O)c3cccnc3N)n2)CCN1 (stereo not drawn) [compound 461]	6.30 to 7.30		
Cc1ccsc1CN1CCCN(c2cccc(C(=O)c3cccnc3N)n2)CC1 [compound 106]	5.55 to 6.30		
CC(C)(O)CC1CN(c2ccc(C(F)(F)F)c(C(=O)c3cccnc3N)n2)CCN1 (stereo not drawn) [compound 459]	6.30 to 7.30		
COCC1CN(c2ccc(C(F)(F)F)c(C(=O)c3cccnc3N)n2)CCN1 (stereo not drawn) [compound 455]	5.55 to 6.30		
CCC(N)(COc1ccc(C(F)(F)F)c(C(=O)c2cccnc2N)n1)c1ccccc1 (stereo not drawn) [compound 440]	6.30 to 7.30		
CCC(N)(CNc1ccc(C(F)(F)F)c(C(=O)c2cccnc2N)n1)c1ccccc1 (stereo not drawn) [compound 444]	6.30 to 7.30		
C[C@@H]1CNCCN1c1ccc(C(F)(F)F)c(C(=O)c2cccnc2N)n1 [compound 484]	6.30 to 7.30		
NCC(CNc1ccc(C(F)(F)F)c(C(=O)c2cccnc2N)n1)c1ccccc1 (stereo not drawn) [compound 431]		> 7.30	
CCC(=O)N1CCCN(c2cccc(C(=O)c3cccnc3N)n2)CC1 [compound 20]	5.55 to 6.30		
CCC1CN(c2ccc(C(F)(F)F)c(C(=O)c3cccnc3N)n2)CCN1 (stereo not drawn) [compound 432]	6.30 to 7.30		
CC[C@@H]1CN(c2ccc(C(F)(F)F)c(C(=O)c3cccnc3N)n2)C[C@H](CC(C)C)N1 [compound 488]		> 7.30	
Nc1ncc(Cl)cc1C(=O)c1nc(N2CCNC(c3ccccc3)C2)ccc1C(F)(F)F (stereo not drawn) [compound 496]	6.30 to 7.30		
CC(C)(C)CCN1CCCN(c2cccc(C(=O)c3cc(Br)cnc3N)n2)CC1 [compound 76]	5.55 to 6.30		
CC(C)C[C@H]1CN(c2ccc(C(F)(F)F)c(C(=O)c3cc(Cl)cnc3N)n2)CCN1 [compound 480]	6.30 to 7.30		
